These results are taken from patent EP0103895A2, “Novel hydroxylamine derivatives, production and use thereof” (MEIJI SEIKA KABUSHIKI KAISHA, priority 1982, dated 1984).

Assay [1] concerns fowl roundworm (Ascaridia galli). The assay is described as follows: Anthelmintic test in chickens artificially infected with fowl roundworm, single oral dose in gelatin capsule, worm bodies counted within 48 hours (Test Examples A1, B1, C1, D1). In kind it is in vivo. As to conditions: for inhibition in vivo at 30 mg/kg / inhibition in vivo at 50 mg/kg / inhibition in vivo at 15 mg/kg: Ascaridia galli, po, 48 h, read-out: Anthelmintic effect after 48 hours. As for the experimental part:
Chickens infected artificially with fowl roundworm (Ascaridia galli) were employed in groups each consisting of three chickens. Fecal matter testing was conducted before administration of medicine to confirm infection with the worm. The quantity of the compound provided for testing was 10 mg and 20 mg per Kg of body weight, which was orally administered each in a gelatin capsule to the chicken. The number of worm bodies discharged within 48 hours after administration of medicine was counted, the chicken was killed after 48 hours and the number of worm bodies remaining in the enteron was counted to determine the anthelmintic percentage, wherefrom the antihelmintic effect was judged.
The same as that in Test Example Al.
The same as that in Test Example Al except that the compound provided for testing was in quantities of 30 mg and 50 mg per Kg of body weight, which were orally administered to the chickens in gelatin capsules.
The same as that in Test Example Al, except that the compounds provided for testing were used in quantities of 15 mg and 30 mg per Kg of body weight, which were orally administered each in a gelatin capsule to the chicken.

The subject of assay [2] is fowl roundworm (As. galli). Nature of the assay: Anthelmintic test in chickens artificially infected with fowl roundworm, compound added to feed, E.P.G. and worm count up to 21st day (Test Examples A2, B2, C2, D2). It is filed as in vivo, Ascaridia galli. As to conditions: for inhibition in vivo at 20 ppm / inhibition in vivo at 50 ppm / inhibition in vivo at 25 ppm: Ascaridia galli, 504 h, read-out: Anthelmintic effect; for Change of E.P.G. Before administration: baseline. As for the experimental part:
Chickens artificially infected with fowl roundworm (As. galli) were employed in groups each of two chickens.
Fecal matter testing was conducted before initiation of the test and on the 7th, 14th and 21st day after initiation of the test. Reduction in worm egg number was examined by calculating E.P.G. (worm eggs per 1 g of fecal matter), and the number of discharged worm bodies and the number of worm bodies remaining in the enteron when the chicken was killed on 21st day were counted to determine the anthelmintic percentage, from which the anthelmintic effect was judged.

Where [3] appears, read: chickens, 30 mg/Kg orally in gelatin capsule, one value per chicken (No.1-3).
Setting [4] is: chickens, 50 mg/Kg orally in gelatin capsule, one value per chicken (No.1-3).
[5] abbreviates: po, chickens, 20 ppm added to feed, worm count on 21st day, one value per chicken.
The mark [6] stands for this setting: po, chickens, 50 ppm added to feed, worm count on 21st day, one value per chicken.
Where [7] appears, read: chicken, 15 mg/Kg oral in gelatin capsule, chickens No.1-3.
Setting [8] is: chicken, 30 mg/Kg oral in gelatin capsule, chickens No.1-3.
Setting [9] is: feed or water, chicken, 25 ppm in feed.
The mark [10] stands for this setting: feed or water, chicken, 50 ppm in feed.
Where [11] appears, read: chickens, 20 ppm added to feed, one value per chicken.
The mark [12] stands for this setting: chickens, 50 ppm added to feed, one value per chicken.
Setting [13] is: chicken, 50 mg/Kg oral in gelatin capsule, chickens No.1-3.

SMILES strings stand for the structures. “And” between values parts separate entries of the source, which are not always exact repeats. Identical values can stand only once. Like-named read-outs stand apart in the source and are kept apart here.

For the compound `C=CCN(OC)C(=O)CCCCCCC/C=C\CCCCCCCC` [Compound B4, N-allyl-N-oleoyl-O-methylhydroxylamine], the inhibition in vivo at 30 mg/kg in assay [1] (setting [3]) came to 100%. Moreover, the inhibition in vivo at 50 mg/kg in assay [1] (setting [4]) came out at 100%. Moreover, the inhibition in vivo at 20 ppm in assay [2] (setting [5]) amounted to 100%. Also, the inhibition in vivo at 50 ppm in assay [2] (setting [6]) came to 100%.

In the case of `C=CCN(OCC)C(=O)c1ccccc1` [Compound B13, N-allyl-N-benzoyl-0-ethylhydroxylamine], the inhibition in vivo at 30 mg/kg in assay [1] (setting [3]) was 100%. Besides, the inhibition in vivo at 50 mg/kg in assay [1] (setting [4]) amounted to 100%.

Turning to `C#CCONCC=C` [Compound D5], in assay [1] (setting [7]), the inhibition in vivo at 15 mg/kg amounted to 100%. For the same compound, in assay [1] (setting [8]), the inhibition in vivo at 30 mg/kg came out at 100% and the “Anthelmintic effect after 48 hours” value is “+++ (100%)”. For the same compound, the “Anthelmintic effect after 48 hours” value in assay [1] (chicken, 15 mg/Kg oral in gelatin capsule, chickens No.1-3, 15 mg/kg) is recorded as “+++ (100%)”. Besides, the inhibition in vivo at 25 ppm in assay [2] (setting [9]) is 80 to 90%. The inhibition in vivo at 50 ppm in assay [2] (setting [10]) is 100%.

Turning to `C=CCN(OC)C(=O)CCC` [Compound B3, N-allyl-N-butylyl-O-methylhydroxylamine], the “Anthelmintic effect after 48 hours” value in assay [1] (setting [3]) and in assay [1] (setting [4]) was “+++ (100%)” throughout. Besides, the anthelmintic effect entry in assay [2] (chickens, 20 ppm added to feed, worm count on 21st day, one value per chicken) was “++ (80 - 90%)”; in assay [2] (chickens, 50 ppm added to feed, worm count on 21st day, one value per chicken), “+++ (100%)”. The “Change of E.P.G. Before administration” value in assay [2] (setting [11]) was 5,600 E.P.G. and 7,900 E.P.G; in assay [2] (setting [12]), 10,700 E.P.G. and 14,300 E.P.G. The “Change of E.P.G. 7th day” value in assay [2] (setting [11]) was 3.100 E.P.G. and 3,000 E.P.G. In assay [2] (setting [12]), the “Change of E.P.G. 21st day” value is 0 E.P.G.

In the case of `C=CCON(CC=C)C(=O)CCCCCCCCCCCCCCCCC` [Compound C5], the inhibition in vivo at 30 mg/kg in assay [1] (setting [8]) is 80 to 90%. For the same compound, in assay [1] (setting [13]), the inhibition in vivo at 50 mg/kg was 80 to 90%. Moreover, the inhibition in vivo at 25 ppm in assay [2] (setting [9]) lay in the range of 80 to 90%. Moreover, the inhibition in vivo at 50 ppm in assay [2] (setting [10]) was 100%.

Take `C=CCN(OCC)C(=O)c1ccc(F)cc1` [Compound B14, N-allyl-N-(p-fluorobenzoyl)-O-ethylhydroxylamine]: in assay [1] (setting [3]), the inhibition in vivo at 30 mg/kg came to 100%. Also, the inhibition in vivo at 50 mg/kg in assay [1] (setting [4]) turned out to be 100%.

`C=CCNOCC=C` [Compound D4]: the inhibition in vivo at 15 mg/kg in assay [1] (setting [7]) lay in the range of 80 to 90%. In assay [1] (setting [8]), the inhibition in vivo at 30 mg/kg was 100%. Besides, the inhibition in vivo at 25 ppm in assay [2] (setting [9]) is 80 to 90%. The inhibition in vivo at 50 ppm in assay [2] (setting [10]) was 100%.

As for `C=CCN(C=O)OCC` [Compound B15, N-allyl-N-formyl-O-ethylhydroxylamine], the inhibition in vivo at 30 mg/kg in assay [1] (setting [3]) is 100%. The inhibition in vivo at 50 mg/kg in assay [1] (setting [4]) worked out at 100%. Besides, the inhibition in vivo at 20 ppm in assay [2] (setting [5]) was 80 to 90%. In addition, the inhibition in vivo at 50 ppm in assay [2] (setting [6]) was 100%.

On to `C=CCN(OCC)C(=O)CCCCCCCCCCCCCCCCC` [Compound B12, N-allyl-N-stearoyl-O-ethylhydroxylamine], for which, in assay [1] (setting [3]), the inhibition in vivo at 30 mg/kg was 100%. Further, in assay [1] (setting [4]), the inhibition in vivo at 50 mg/kg was found to be 100%.

On to `CC=CCNOCC` [Compound D7], for which, in assay [1] (setting [8]), the inhibition in vivo at 30 mg/kg turned out to be 100%.

As for `C=CCN(OCC)C(=O)CCC` [Compound B10, N-allyl-N-butylyl-0-ethylhydroxylamine], in assay [1] (setting [3]), the inhibition in vivo at 30 mg/kg was 100%. Further, the inhibition in vivo at 50 mg/kg in assay [1] (setting [4]) was determined as 100%.

`C=CCN(OCCCC)C(C)=O` [Compound B18, N-allyl-N-acetyl-0-butylhydroxylamine]: in assay [1] (setting [3]), the inhibition in vivo at 30 mg/kg amounted to 100%. Moreover, the inhibition in vivo at 50 mg/kg in assay [1] (setting [4]) is 100%. In assay [2] (setting [5]), the inhibition in vivo at 20 ppm is 100%. In assay [2] (setting [6]), the inhibition in vivo at 50 ppm was determined as 100%.

`CC=CCN(OCC)C(C)=O` [Compound B16, N-crotyl-N-acetyl-O-ethylhydroxylamine]: in assay [1] (setting [3]), the inhibition in vivo at 30 mg/kg was 100%. In assay [1] (setting [4]), the inhibition in vivo at 50 mg/kg came out at 100%. In assay [2] (setting [5]), the inhibition in vivo at 20 ppm was determined as 100%. Besides, the inhibition in vivo at 50 ppm in assay [2] (setting [6]) amounted to 100%.

`CC=CCN(OC)C(C)=O` [Compound B7, N-crotyl-N-acetyl-O-methylhydroxylamine]: the inhibition in vivo at 30 mg/kg in assay [1] (setting [3]) is 100%. For the same compound, the inhibition in vivo at 50 mg/kg in assay [1] (setting [4]) came to 100%.

Take `C=CCONCC=CC` [Compound D8]: in assay [1] (setting [7]), the inhibition in vivo at 15 mg/kg lay within 80 to 90%. Also, the inhibition in vivo at 30 mg/kg in assay [1] (setting [8]) amounted to 100%.

Take `C#CCNOCCC` [Compound D11]: in assay [1] (setting [8]), the inhibition in vivo at 30 mg/kg stood at 100%.

In the case of `C=CCN(OC)C(=O)CC` [Compound B2, N-allyl-N-propionyl-O-methylhydroxylamine], the inhibition in vivo at 30 mg/kg in assay [1] (setting [3]) worked out at 100%. Further, in assay [1] (setting [4]), the inhibition in vivo at 50 mg/kg worked out at 100%. Besides, in assay [2] (setting [5]), the inhibition in vivo at 20 ppm fell in the range of 80 to 90%. Also, the inhibition in vivo at 50 ppm in assay [2] (setting [6]) was 100%.

With `C=CCN(OCC)C(=O)CC(C)C` [Compound B11, N-allyl-N-isovaleroyl-O-ethylhydroxylamine], in assay [1] (setting [3]), the inhibition in vivo at 30 mg/kg turned out to be 100%. For the same compound, in assay [1] (setting [4]), the inhibition in vivo at 50 mg/kg came out at 100%.

Consider `C=CCON(C=O)CC=C` [Compound C8], for which the inhibition in vivo at 30 mg/kg in assay [1] (setting [8]) turned out to be 100%. In addition, the inhibition in vivo at 50 mg/kg in assay [1] (setting [13]) was 100%. Moreover, the inhibition in vivo at 25 ppm in assay [2] (setting [9]) turned out to be 100%. Also, in assay [2] (setting [10]), the inhibition in vivo at 50 ppm was 100%. Besides, the “Change of E.P.G. 21st day” value in assay [2] (chicken, 25 ppm in feed) came out at 0; in assay [2] (chicken, 50 ppm in feed), 0.

Take `C=CCN(OCCC)C(C)=O` [Compound B17, N-allyl-N-acetyl-O-propylhydroxylamine]: in assay [1] (setting [3]), the inhibition in vivo at 30 mg/kg came out at 100%. The inhibition in vivo at 50 mg/kg in assay [1] (setting [4]) amounted to 100%. Further, the inhibition in vivo at 20 ppm in assay [2] (setting [5]) lay within 80 to 90%. Also, the inhibition in vivo at 50 ppm in assay [2] (setting [6]) was determined as 100%.

With `C=CCN(C=O)OC` [Compound B6, N-allyl-N-formyl-O-methylhydroxylamine], the inhibition in vivo at 30 mg/kg in assay [1] (setting [3]) was found to be 100%. Also, the inhibition in vivo at 50 mg/kg in assay [1] (setting [4]) was 100%. Moreover, the inhibition in vivo at 20 ppm in assay [2] (setting [5]) fell in the range of 80 to 90%. In addition, in assay [2] (setting [6]), the inhibition in vivo at 50 ppm is 100%.

As for `C=CCNOCCC` [Compound D2, N-allyl-0-propylhydroxylamine], the inhibition in vivo at 30 mg/kg in assay [1] (setting [8]) stood at 100%. For the same compound, in assay [2] (setting [9]), the inhibition in vivo at 25 ppm is 80 to 90%. In addition, the inhibition in vivo at 50 ppm in assay [2] (setting [10]) was 100%.
